Source: patent publication US8324264B1, “Inhibitors of bacterial biofilms and related methods” (Sequoia Sciences, Inc., priority 2011, dated 2012)
In brackets after ≈: the same amount, converted by molar mass.

Key:
E. coli biofilms = assay: Biofilm growth assay (spreading biofilm on semi-solid agar), E. coli; format: cell-based; conditions: biofilm growth assay, overnight 37° C., vs negative controls, Tables 1-5; for IC85: Escherichia coli, read-out: E. coli: concentration that reduces the area of the spreading biofilm by greater than or equal to 85%
Procedure, shortened: (§1)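 Values are compound concentrations (μg/ml) that cut the spreading-biofilm zone area by ≥85% relative to negative controls after overnight 37 °C growth from 5 μL central inoculum. E. coli plates: LB, 0.6% agar, 0.5% glucose; P. aeruginosa plates: M8 agar plus 0.2% glucose, 100 μM CaCl2, 1 mM MgSO4, 0.5% Casamino acids.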

P. aeruginosa biofilms = assay: Biofilm growth assay (spreading biofilm on semi-solid agar), P. aeruginosa; format: cell-based; conditions: biofilm growth assay, overnight 37° C., vs negative controls, Tables 1-5; for IC85: Pseudomonas aeruginosa, read-out: P. aeruginosa: concentration that reduces the area of the spreading biofilm by greater than or equal to 85%
Procedure, shortened: as §1

Row | SMILES | IC85 (E. coli biofilms) [µg/mL] | IC85 (P. aeruginosa biofilms) [µg/mL] | E. coli: concentration that reduces the area of the spreading biofilm by greater than or equal to 85% (E. coli biofilms) [µg/mL] | P. aeruginosa: concentration that reduces the area of the spreading biofilm by greater than or equal to 85% (P. aeruginosa biofilms) [µg/mL]
1 | CC1(C)CC[C@]2(C(=O)O)CC[C@]3(C)C(=C(c4ccccc4N)CC4[C@@]5(C)Cc6c(n[nH]c6N)C(C)(C)C5CC[C@]43C)C2C1 (stereo partly drawn) [Example 23, (4aS,6aS,6bR,13aR)-12-Amino-15-(2-aminophenyl)-2,2,6a,6b,9,9,13a-heptamethyl-2,3,4,4a,5,6,6a,6b,7,8,8a,9,11,13,13a,13b,14,15b-octadecahydro-1H-chryseno[1,2-f]indazole-4-a-carboxylic acid] | 2 (≈ 3.42 µM) | 1 (≈ 1.71 µM) | – | –
2 | CC1(C)CC[C@]2(C(=O)O)CC[C@]3(C)C(=C(Cl)CC4[C@@]5(C)Cc6c(n[nH]c6N)C(C)(C)C5CC[C@]43C)C2C1 (stereo partly drawn) [Example 24, (4aS,6aS,6bR,13aR)-12-Amino-15-chloro-2,2,6a,6b,9,9,13a-heptamethyl-2,3,4,4a,5,6,6a,6b,7,8,8a,9,11,13,13a,13b,14,15b-octadecahydro-1H-chryseno[1,2-f]indazole-4-a-carboxylic acid] | 1 (≈ 1.89 µM) | 0.5 (≈ 0.947 µM) | – | –
3 | CC1(C)CC[C@]2(C(=O)O)CC[C@]3(C)C(=C(Br)CC4[C@@]5(C)Cc6c(n[nH]c6N)C(C)(C)[C@@H]5CC[C@]43C)[C@@H]2C1 (stereo partly drawn) [Example 25, (4aS,6aS,6bR,8aR,13aR,15bR)-12-Amino-15-bromo-2,2,6a,6b,9,9,13a-heptamethyl-2,3,4,4a,5,6,6a,6b,7,8,8a,9,11,13,13a,13b,14,15b-octadecahydro-1H-chryseno[1,2-f]indazole-4-a-carboxylic acid] | – | – | >2 | 0.5
4 | CC1(C)CC[C@]2(C(=O)O)CC[C@]3(C)C(=C(c4ccoc4)CC4[C@@]5(C)Cc6c(n[nH]c6N)C(C)(C)[C@@H]5CC[C@]43C)[C@@H]2C1 (stereo partly drawn) [Example 26, (4aS,6aS,6bR,8aR,13aR,15bS)-12-Amino-15-(furan-3-yl)-2,2,6a,6b,9,9,13a-heptamethyl-2,3,4,4a,5,6,6a,6b,7,8,8a,9,11,13,13a,13b,14,15b-octadecahydro-1H-chryseno[1,2-f]indazole-4-a-carboxylic acid] | – | – | 1 | 0.25
5 | CC1(C)CC[C@]2(C(=O)O)CC[C@]3(C)C(=C(c4cn[nH]c4)CC4[C@@]5(C)Cc6c(n[nH]c6N)C(C)(C)[C@@H]5CC[C@]43C)[C@@H]2C1 (stereo partly drawn) [Example 27, (4aS,6aS,6bR,8aR,13aR,15bS)-12-Amino-2,2,6a,6b,9,9,13a-heptamethyl-15-(1H-pyrazol-4-yl)-2,3,4,4a,5,6,6a,6b,7,8,8a,9,11,13,13a,13b,14,15b-octadecahydro-1H-chryseno[1,2-f]indazole-4-a-carboxylic acid] | – | – | >2 | 1
6 | Cn1cc(C2=C3[C@@H]4CC(C)(C)CC[C@]4(C(=O)O)CC[C@@]3(C)[C@]3(C)CC[C@H]4C(C)(C)c5n[nH]c(N)c5C[C@]4(C)C3C2)cn1 (stereo partly drawn) [Example 28, (4aS,6aS,6bR,8aR,13aR,15bS)-12-Amino-2,2,6a,6b,9,9,13a-heptamethyl-15-(1-methyl-1H-pyrazol-4-yl)-2,3,4,4a,5,6,6a,6b,7,8,8a,9,11,13,13a,13b,14,15b-octadecahydro-1H-chryseno[1,2-f]indazole-4-a-carboxylic acid] | – | – | 2 | 1
7 | CC1(C)CC[C@]2(C(=O)O)CC[C@]3(C)C(=C(c4ccncc4)CC4[C@@]5(C)Cc6c(n[nH]c6N)C(C)(C)[C@@H]5CC[C@]43C)[C@@H]2C1 (stereo partly drawn) [Example 29, (4aS,6aS,6bR,8aR,13aR,15bS)-12-Amino-2,2,6a,6b,9,9,13a-heptamethyl-15-(pyridin-4-yl)-2,3,4,4a,5,6,6a,6b,7,8,8a,9,11,13,13a,13b,14,15b-octadecahydro-1H-chryseno[1,2-f]indazole-4-a-carboxylic acid] | – | – | 1 | 1
8 | CC1(C)CC[C@]2(C(=O)O)CC[C@]3(C)C(=C(c4cncnc4)CC4[C@@]5(C)Cc6c(n[nH]c6N)C(C)(C)[C@@H]5CC[C@]43C)[C@@H]2C1 (stereo partly drawn) [Example 30, (4aS,6aS,6bR,8aR,13aR,15bS)-12-Amino-2,2,6a,6b,9,9,13a-heptamethyl-15-(pyrimidin-5-yl)-2,3,4,4a,5,6,6a,6b,7,8,8a,9,11,13,13a,13b,14,15b-octadecahydro-1H-chryseno[1,2-f]indazole-4-a-carboxylic acid] | – | – | 1 | 2
9 | CC1(C)CC[C@]2(C(=O)O)CC[C@]3(C)C(=C(c4ccc(N)c(F)c4)CC4[C@@]5(C)Cc6c(n[nH]c6N)C(C)(C)C5CC[C@]43C)C2C1 (stereo partly drawn) [Example 31, (4aS,6aS,6bR,13aR)-12-Amino-15-(4-amino-3-fluorophenyl)-2,2,6a,6b,9,9,13a-heptamethyl-2,3,4,4a,5,6,6a,6b,7,8,8a,9,11,13,13a,13b,14,15b-octadecahydro-1H-chryseno[1,2-f]indazole-4-a-carboxylic acid] | – | – | 1 | 0.5
10 | CC1(C)CC[C@]2(C(=O)O)CC[C@]3(C)C(=C(c4ccoc4CN4CCOCC4)CC4[C@@]5(C)Cc6c(n[nH]c6N)C(C)(C)[C@@H]5CC[C@]43C)[C@@H]2C1 (stereo partly drawn) [Example 32, (4aS,6aS,6bR,8aR,13aR,15bS)-12-Amino-2,2,6a,6b,9,9,13a-heptamethyl-15-(2-(morpholinomethyl)furan-3-yl)-2,3,4,4a,5,6,6a,6b,7,8,8a,9,11,13,13a,13b,14,15b-octadecahydro-1H-chryseno[1,2-f]indazole-4-a-carboxylic acid] | – | – | 1 | 0.5
11 | CC1(C)CC[C@]2(C(=O)O)CC[C@]3(C)C(=C(c4c[nH]cc4CN4CCOCC4)CC4[C@@]5(C)Cc6c(n[nH]c6N)C(C)(C)[C@@H]5CC[C@]43C)[C@@H]2C1 (stereo partly drawn) [Example 33, (4aS,6aS,6bR,8aR,13aR,15bS)-12-Amino-2,2,6a,6b,9,9,13a-heptamethyl-15-(4-(morpholinomethyl)-1H-pyrrol-3-yl)-2,3,4,4a,5,6,6a,6b,7,8,8a,9,11,13,13a,13b,14,15b-octadecahydro-1H-chryseno[1,2-f]indazole-4-a-carboxylic acid] | – | – | 4 | 2
12 | CC1(C)CC[C@]2(C(=O)O)CC[C@]3(C)C(=C(c4ccsc4CN4CCOCC4)CC4[C@@]5(C)Cc6c(n[nH]c6N)C(C)(C)C5CC[C@]43C)C2C1 (stereo partly drawn) [Example 34, (4aS,6aS,6bR,13aR)-12-Amino-2,2,6a,6b,9,9,13a-heptamethyl-15-(2-(morpholinomethyl)thiophen-3-yl)-2,3,4,4a,5,6,6a,6b,7,8,8a,9,11,13,13a,13b,14,15b-octadecahydro-1H-chryseno[1,2-f]indazole-4-a-carboxylic acid] | – | – | 1 | 1
